{"source": "patent US11203576B2", "about": "“Aurora kinase and Janus kinase inhibitors for prevention of graft versus host disease” (H. LEE MOFFITT CANCER CENTER AND RESEARCH INSTITUTE, INC., priority 2016, dated 2021)", "key": {"U937 cells": {"system": "U937 cells", "assay": "CTL generation and tumor lysis assays", "format": "cell-based, human", "details": "NSG mice, 50 mg/kg daily, irradiated U937 on days 0 and +7, vs vehicle; listed as AJI-100", "method": "NSG mice were transplanted with human PBMCs as described above, and treated with either AJI-100 (50 mg/kg daily) or vehicle control. Additionally, recipient mice received an inoculum of irradiated U937 cells (ATCC, 10^7/mouse) on days 0 and +7. Mice were euthanized between days +10 to +12, spleens were harvested, and human CD8^+ T-cells were isolated by magnetic bead separation. Fresh U937 target cells were labeled with Calcein-AM for 30 minutes, washed, and then cultured with the purified CD8^+ T-cells at varying effector to target ratios for 4 hours at 37° C. No additional drugs were added during this final culture. […] Percent lysis was calculated as follows: [(test fluorescence−spontaneous fluorescence)/(maximum fluorescence−spontaneous fluorescence)]×100."}, "Bioavailability": {"assay": "Bioavailability", "details": "in vivo"}, "[1]": {"system": "human skin graft rejection by allogeneic PBMC", "assay": "Human skin xenograft rejection in NSG mice", "format": "in vivo", "details": "50 mg/kg daily i.p., + PBMCs, day +21", "description": "Using the nondiagnostic mastectomy skin from consenting donors, a 1×1 cm skin graft was transplanted onto immunodeficient NSG mice dorsally. After 30 days of healing, 5×10^6 peripheral blood mononuclear cells (PBMC) from an HLA-disparate random donor was given by i.p. injection. A cohort of mice only received a skin graft without PBMCs, as negative rejection controls. The transplanted mice were treated with AJI-100 (50 mg/kg), a dual JAK2/Aurora A kinase inhibitor, or vehicle daily by i.p. injection. Mice were humanely euthanized on day +21 to assess human anti-human skin rejection pathology. […] Conversely, skin grafts from the mice who received Vehicle+PBMCs show diffuse lymphocytic infiltration of the dermis with exocytosis, a disrupted dermal-epidermal junction, and hyperkeratosis (grade III, FIG. 15B)."}, "[2]": {"system": "T-cells allostimulated by dendritic cells (DC)", "assay": "Allogeneic mixed leukocyte reaction (alloMLR), T-cell proliferation", "format": "cell-based, human", "description": "Bulk donor T-cells were allostimulated with allogeneic DCs (DC:T-cell ratio of 1:30) as previously described (OneBlood, Tampa, Fla.)(15, 16, 20). […] As indicated, alloMLRs consisting of Treg depleted, naïve CD4^+ T-cells (Miltenyi Biotec Inc, San Diego, Calif.) were treated with a combination of ARL67156 (CD39 inhibitor, 125 μM, Sigma), AJI, or DMSO on day 0 to study the role of CD39 and ATP in this system. T-cell proliferation was measured on day 5 by a colorimetric assay (CellTiter 96 Aqueous One Solution Cell Proliferation Assay [MTS]; or CellTiter Blue, Promega, Madison, Wis.). Absorbance/optical density (OD) was analyzed at 490 nm or 590 nm, respectively. Proliferation (%)=(OD treated alloMLR−OD T-cells alone)/(OD DMSO alloMLR−OD T-cells alone)×100."}, "STAT3 (target of JAK2)": {"system": "STAT3 (target of JAK2)", "assay": "STAT3 phosphorylation in T-cells (flow cytometry)", "format": "cell-based, human", "details": "in vitro, DC- or IL-6-stimulated, vs DMSO", "description": "IL-6-induced pSTAT3 or IL-2-induced pSTAT5 (Y694) was measured by flow cytometry."}, "Aurora kinase B": {"target": "Aurora kinase B (Homo sapiens, UniProt Q96GD4)", "sequence (Q96GD4 whole entry)": "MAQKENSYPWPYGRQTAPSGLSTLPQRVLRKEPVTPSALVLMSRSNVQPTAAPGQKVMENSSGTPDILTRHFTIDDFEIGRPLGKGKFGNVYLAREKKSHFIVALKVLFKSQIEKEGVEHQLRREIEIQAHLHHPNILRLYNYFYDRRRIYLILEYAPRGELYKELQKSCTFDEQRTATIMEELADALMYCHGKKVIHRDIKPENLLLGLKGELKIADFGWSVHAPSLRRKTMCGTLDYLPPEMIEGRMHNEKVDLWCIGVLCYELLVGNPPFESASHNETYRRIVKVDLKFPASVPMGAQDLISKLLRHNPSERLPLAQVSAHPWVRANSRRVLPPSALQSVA", "assay": "Kinase target screen, panel of 140 kinases", "format": "biochemical", "details": "compared with alisertib", "description": "(§1) Allogeneic mixed leukocyte reactions (alloMLRs) are standard assays used to assess human T cell proliferation against polyclonal or antigen-specific stimuli. In alloMLRs consisting of human T cells and allogeneicmonocyte-derived dendritic cells (DCs), the JAK2 inhibitor TG101348 reduced alloreactive T cell proliferation at concentrations of 350 nM and greater as previously reported (FIG. 9A). […] Synergistic suppression of T cells allostimulated by DCs was achieved when TG101348 and alisertib were added together at a ratio of 1:5, respectively, with a calculated combination index (CI) of <1 using the Chou-Talalay method (FIG. 9A). […] The chemical analogs AJI-214 and AJI-100 were designed and synthesized at the Moffitt Cancer Center and shown to inhibit Aurora kinase A and JAK2 with similar potency. […] Because AJI-100 is tolerated in mouse models, a kinase target screen was performed on AJI-100 to verify its activity against Aurora kinase A and JAK2 among a panel of 140 kinases."}, "Aurora kinase A": {"target": "T1, Aurora kinase A (Homo sapiens, UniProt O14965)", "T1 sequence (O14965 1-403)": "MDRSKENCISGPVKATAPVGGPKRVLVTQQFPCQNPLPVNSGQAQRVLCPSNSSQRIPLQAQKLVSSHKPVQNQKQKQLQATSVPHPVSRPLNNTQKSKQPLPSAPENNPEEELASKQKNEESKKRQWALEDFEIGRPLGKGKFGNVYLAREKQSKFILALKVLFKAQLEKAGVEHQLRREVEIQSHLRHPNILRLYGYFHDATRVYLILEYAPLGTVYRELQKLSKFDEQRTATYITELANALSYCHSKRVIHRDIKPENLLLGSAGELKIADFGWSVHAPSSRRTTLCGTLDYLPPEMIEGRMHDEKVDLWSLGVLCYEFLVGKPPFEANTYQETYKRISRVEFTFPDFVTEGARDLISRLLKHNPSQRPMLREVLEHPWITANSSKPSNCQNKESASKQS", "assay": "Kinase target screen, panel of 140 kinases", "format": "biochemical", "description": "as §1"}, "JAK2": {"target": "JAK2 (Homo sapiens, UniProt O60674)", "sequence (O60674 whole entry)": "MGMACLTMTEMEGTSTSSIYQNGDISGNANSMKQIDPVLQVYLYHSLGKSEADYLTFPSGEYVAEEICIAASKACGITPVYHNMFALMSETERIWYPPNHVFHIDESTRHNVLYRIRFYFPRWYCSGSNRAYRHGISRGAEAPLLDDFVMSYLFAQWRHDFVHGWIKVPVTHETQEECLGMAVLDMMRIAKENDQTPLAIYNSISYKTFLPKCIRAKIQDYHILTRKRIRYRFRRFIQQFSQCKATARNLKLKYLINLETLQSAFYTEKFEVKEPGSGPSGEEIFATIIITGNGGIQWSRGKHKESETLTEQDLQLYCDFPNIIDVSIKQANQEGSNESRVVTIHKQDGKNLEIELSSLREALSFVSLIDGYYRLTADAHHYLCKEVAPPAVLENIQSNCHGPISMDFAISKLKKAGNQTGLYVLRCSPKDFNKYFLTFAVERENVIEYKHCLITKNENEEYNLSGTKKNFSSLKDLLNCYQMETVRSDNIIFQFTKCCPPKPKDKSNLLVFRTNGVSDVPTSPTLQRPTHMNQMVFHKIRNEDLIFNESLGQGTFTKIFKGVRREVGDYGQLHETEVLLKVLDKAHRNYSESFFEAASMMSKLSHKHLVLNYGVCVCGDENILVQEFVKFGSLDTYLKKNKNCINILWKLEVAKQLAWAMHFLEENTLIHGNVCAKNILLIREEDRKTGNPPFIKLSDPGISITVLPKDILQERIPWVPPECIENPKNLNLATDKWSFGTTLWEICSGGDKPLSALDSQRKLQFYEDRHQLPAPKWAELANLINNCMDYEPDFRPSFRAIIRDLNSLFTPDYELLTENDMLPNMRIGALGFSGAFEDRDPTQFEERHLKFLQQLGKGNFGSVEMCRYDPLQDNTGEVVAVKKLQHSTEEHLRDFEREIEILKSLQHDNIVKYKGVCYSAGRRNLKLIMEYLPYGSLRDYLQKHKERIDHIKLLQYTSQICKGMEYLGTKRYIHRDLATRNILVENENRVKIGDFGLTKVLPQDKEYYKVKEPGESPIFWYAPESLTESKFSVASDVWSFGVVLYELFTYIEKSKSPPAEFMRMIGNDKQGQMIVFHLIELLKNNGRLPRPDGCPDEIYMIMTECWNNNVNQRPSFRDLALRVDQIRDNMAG", "assay": "Kinase target screen, panel of 140 kinases", "format": "biochemical", "description": "as §1"}, "[3]": {"system": "5′ AMP activated protein kinase (AMPK)", "assay": "Kinase target screen, panel of 140 kinases", "format": "biochemical", "description": "as §1"}}}
{"smiles": "NC(=O)c1ccc(Nc2ncc(F)c(Nc3ccccc3)n2)cc1", "note": "[bisanilinopyrimidine (II), 5-Fluoro-N4-phenyl-N2-[4-(4-carboxamide)phenyl]pyrimidine-2,4-diamine]", "values": [{"measurement": "in vivo generation of U937-specific CTL and killing of U937 targets", "setting": "U937 cells", "value": "did not inhibit CTL generation"}, {"measurement": "bioavailability", "setting": "Bioavailability", "value": "superior bioavailability"}, {"measurement": "skin graft rejection grade (Bejarano scoring system)", "setting": "[1]", "value": "grade I"}, {"measurement": "IC50", "setting": "[2]; Homo sapiens, single agent added once on day 0, proliferation on day 5, DC:T-cell ratio 1:30, read-out: IC50, T-cell proliferation in alloMLR", "value": 200, "unit": "nM"}, {"measurement": "suppression of T cells in alloMLRs", "setting": "[2]; single agent, nanomolar concentrations, vs DMSO", "value": "significant suppression"}, {"measurement": "STAT3 (pSTAT3 Y705) phosphorylation in T-cells", "setting": "STAT3 (target of JAK2)", "value": "less STAT3 phosphorylation"}, {"measurement": "STAT3 (pSTAT3 Y705) phosphorylation in T-cells", "setting": "STAT3 (target of JAK2); listed as AJI-100", "value": "reducing the phosphorylation"}, {"measurement": "ratio of Aurora kinase A to kinase B inhibition", "setting": "Aurora kinase B", "value": "greater than alisertib"}, {"measurement": "suppression of Aurora kinase B", "setting": "Aurora kinase B", "value": "slightly more potent suppression of Aurora kinase B than alisertib"}, {"measurement": "inhibition of Aurora kinase A in kinase panel", "setting": "Aurora kinase A", "value": "among the top three kinases inhibited"}, {"measurement": "inhibition of JAK2 in kinase panel", "setting": "JAK2", "value": "among the top three kinases inhibited"}, {"measurement": "inhibition of AMPK", "setting": "[3]", "value": "inhibits"}]}
